{"source": "patent US20110286998A1", "about": "“METHODS FOR TREATING AND PREVENTING CANCERS THAT EXPRESS THE HYPOTHALAMIC-PITUITARY-GONADAL AXIS OF HORMONES AND RECEPTORS” (Voyager Pharmaceutical Corporation, priority 2001, published 2011)", "key": {"cancer cell lines": {"tested_on": "cancer cell lines", "assay_type": "cell-based", "procedure": "Cell growth assays were performed as described below. CaOV3 (ATCC HTB-75) cells were plated in Dulbecco's modified Eagle's medium with 4 mM L-glutamine, 1.5 g/L sodium bicarbonate, 0.1 mM non-essential amino acids, and 10% fetal bovine serum. H358 (ATCC CRL-5807) cells were plated in RPMI 1640 medium with 2 mM L-glutamine adjusted to contain 1.5 g/L sodium bicarbonate, 4.5 g/L glucose, 10 mM HEPES, 1.0 mM sodium pyruvate and 10% fetal bovine serum. H838 (ATCC CRL-5844) cells were plated in RPMI 1640 medium with 1.5 g/L sodium bicarbonate, 4.5 g/L glucose, 10 mM HEPES, 1.0 mM sodium pyruvate, 10 U/ml insulin and 10% fetal bovine serum. […]\nFor cell growth assays in a 96 well format, different numbers of cells were plated, depending on the cell line (about 2000 cells/well for CaOV3, about 250 cells/well for 786-O, about 500 cells/well for H838 and H358, about 5000 cells/well for T47D and […], about 1000 cells/well for HPAC, ACHN, HT-29, MCF-7 and about 300,000 cells/well for MV4-11). […] The number of cells in each group was measured by incubating cells with WST-8 (2-(2-methoxy-4-nitrophenyl)-3-(4-nitrophenyl)-5-(2,4-disulfophenyl)-2H-tetrazolium, monosodium salt) which produces a water soluble formazan dye that was detected by measuring optical density (at 450 nm) using a μQuant™ Universal Microplate Spectrophotometer (Bio-Tek® Instruments, Inc., Winooski, Vt.)."}, "[1]": {"conditions": "both, dog, in vivo, sc, 34 mg", "experimental": "FIG. 16 presents results of a pharmacokinetic study in which male and female dogs were either injected intramuscularly with a leuprolide depot formulation or implanted subcutaneously with a leuprolide implant formulation.\nSix dogs of each sex were dosed with 60 mg of Lupron Depot® by injection (males—X, females—▴) on day 1. Six dogs of each sex were dosed with single subcutaneous doses (males—▪, females—♦) of 3 DURIN™-Leuprolide 11.3 mg implants (total dose 34 mg) on day 1 and again on day 64. Serum leuprolide levels were determined and plotted against time out to 200 days."}, "testosterone": {"tested_on": "testosterone", "conditions": "in vivo; cited from earlier work"}, "[2]": {"tested_on": "pituitary secretion of LH and FSH", "conditions": "cited from earlier work"}}}
{"smiles": "CCNC(=O)[C@@H]1CCCN1C(=O)[C@H](CCCNC(=N)N)NC(=O)[C@H](CC(C)C)NC(=O)[C@@H](CC(C)C)NC(=O)[C@H](Cc1ccc(O)cc1)NC(=O)[C@H](CO)NC(=O)[C@H](Cc1c[nH]c2ccccc12)NC(=O)[C@H](Cc1c[nH]cn1)NC(=O)[C@@H]1CCC(=O)N1", "note": "[leuprolide acetate]", "values": [{"measurement": "effect on growth of cancer cell lines", "setting": "cancer cell lines", "value": "slows or inhibits growth in a dose dependent manner"}, {"measurement": "inhibition rates of cancer cell growth", "setting": "cancer cell lines; highest dose of leuprolide used in the studies", "value": "10-40%"}, {"measurement": "sustained serum levels of leuprolide acetate", "setting": "[1]", "value": "5.0 to 8.0", "unit": "ng/mL"}, {"measurement": "serum concentrations required for testosterone suppression", "setting": "testosterone", "value": "less than 1 ng/ml"}, {"measurement": "pituitary secretion of LH and FSH", "setting": "[2]; for several days after initial administration", "value": "increase"}, {"measurement": "LH and FSH secretion", "setting": "[2]; thereafter, pituitary GnRH receptors down-regulated", "value": "significant decrease"}]}
